Measurements from a melting point compilation (Tetko et al.; mined from patent text by program, amines drawn as free bases though some values may be those of a salt).

Row | Compound | melting point
1 | O=C(C=Cc1ccccc1S(=O)(=O)Nc1ccccc1)NO | 205 to 206 °C
2 | CNC(=O)Nc1ccc(Cl)c(Cl)c1 | 156 °C
3 | O=C(CCc1ccccc1)Nc1c(O)cc(-c2ccccc2)oc1=O | 191 to 193 °C
4 | COc1ccc2nc3ccc(CC(=O)O)cn3c(=O)c2c1 | 281 to 282 °C
5 | CN1C(=O)N(c2cc(F)c(C#N)cc2F)C(=O)CC1(N)C(F)(F)F (centres undefined) | 115 °C
6 | c1csc(Cn2ccnc2C2=NCCN2)c1 | 101 to 103 °C
7 | Cc1c2c(c(C(O)c3ccccn3)c(C)c1NC(=O)CC(C)(C)C)OC(C)(C)C2 (centres undefined) | 176 to 177 °C
8 | Nc1ccc(OCc2nc(Cl)ccc2Cl)cc1 | 74 to 75 °C
9 | COC(=O)c1ccc2c(c1)C(=O)C(C=C1C=CC=C(C(=O)O)C1)O2 (centres undefined) | 280 °C
10 | Clc1cccnc1-c1cc(OCCc2ccccn2)c2[nH]nc(Br)c2c1 | > 250 °C
11 | CCn1c(=O)ccc2cnc(Nc3ccc(-c4ccccc4)cc3)nc21 | 207 to 208 °C
12 | N#CC1=C(Cl)CN(COC(=O)CNC(=O)CNC(=O)c2ccccc2)C1(c1ccc(Cl)cc1)C(F)(F)F (centres undefined) | 65 to 67 °C
13 | C#Cc1ccc2c(c1-c1cn(C3CC(O)C(COC(c4ccccc4)(c4ccc(OC)cc4)c4ccc(OC)cc4)O3)c(=O)[nH]c1=O)Cc1ccccc1-2 (centres undefined) | 160 to 161 °C
14 | CCC(=O)N(C)N1CC(C)(C)C(=O)c2ccc(S(=O)(=O)c3ccccc3)cc21 | 153 to 155 °C
15 | COc1ccc(C(=O)Nc2ccccc2)cc1Nc1cc(C)cc(C)c1 | 198 to 199 °C
16 | CCCCNc1cccc2c1C(=O)c1ccccc1C2=O | 78 to 79 °C
17 | Cc1noc(NS(=O)(=O)c2ccsc2C(=O)NCc2ccccc2)c1Br | 186 to 190 °C
18 | COc1ccc(C2OC(O[Si](C)(C)C)(C(F)(F)F)C(C)(C)N2C(=O)COc2ccccc2)cc1 (centres undefined) | 89 to 92 °C
19 | CCCC(=O)c1c[nH]c2c(OC)nccc2c1=O | 206 to 207 °C
20 | COC(=O)c1nc2ccc(Cl)cc2c(O)c1C(=O)OC | 228 to 230 °C
21 | CC#CCOc1ccc(SC(C(=O)NO)c2ccc(OC)cc2)cc1 (centres undefined) | 156 °C
22 | CCOC(=O)c1nc(-c2ccc(C(C)(C)C)cc2)[nH]c1-c1ccc([N+](=O)[O-])cc1 | 190 to 191 °C
23 | Cc1nn2ccccc2c1C(=O)C1=CNCCC1 | 207 to 208 °C
24 | Cn1cc2c(c1)-c1ccc(Cl)cc1C(c1ccccc1F)=NC2 | 142 to 144 °C
25 | Cc1nc(OC[C@@H]2COC(C)(C)O2)c(C#N)c(N2CCc3ccccc3CC2)n1 | 110 to 112 °C
26 | CS(=O)(=O)Nc1cc2occ(-c3cscn3)c(=O)c2cc1Oc1ccccc1 | > 250 °C
27 | CCOC(=O)c1ccc2oc3ccc(OC)cc3c(=O)c2c1 | 170 to 172 °C

Now from value to compound:

Row | melting point | Compound
28 | 97 to 99 °C | COc1ccc2c(c1)OCN(CCO[N+](=O)[O-])C2=O
29 | 134 to 136 °C | CCN(CC)CCNC(=O)c1cc(Cl)c(N)cc1O
30 | 237 to 243 °C | CC1NC(=O)NN=C1c1ccc2c(c1)CCC(=O)N2CCO (centres undefined)
31 | 155 to 157 °C | CCOC(=O)CN(CC(=O)OCC)[C@H]1CC[C@H](Nc2ncc3ncnc(Nc4ccc(F)c(Cl)c4)c3n2)CC1
32 | 116 to 118 °C | OC(CN1CCN(c2ccccn2)CC1)(Cn1cncn1)c1ccc(Cl)cc1Cl (centres undefined)
33 | 192 to 193 °C | CC(C)Cn1c(=O)n(C)c(=O)c2c(N)ncnc21
34 | 150 °C | CCOC(=O)c1c(C)nn(-c2c(Cl)cc(Cl)cc2Cl)c1N
35 | 109 to 111 °C | CC(=O)NC(C)c1ccc(CN2CCN(c3ccc(F)cc3F)CC2)cc1 (centres undefined)
36 | 178 to 179 °C | C=Cn1cc(C(=O)O)c(=O)c2cc(F)c(N3CCN(C)C(C)C3)c(F)c21 (centres undefined)
37 | 230 to 232 °C | CS(=O)(=O)c1ccc([C@@H](CC2CCCC2)C(=O)Nc2nc3ccccc3[nH]2)cc1
38 | 138 to 141 °C | Nc1cc(=O)n(CC2CCCCC2)c(=O)n1CC1CCCCC1
39 | 263 to 264 °C | Cc1nc2c3c(c(C(=O)N4CCCC4)cc2n1C)CCC1(Cc2ccccc2C1)N3
